We go through 14 compounds from PubChem BioAssay (NCI).

Structures are written as SMILES.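 All cell lines were grown in 96-well plates and treated with compound for 48 hours. GI50: concentration for 50% inhibition of growth. TGI: total growth inhibition.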 Where only a bound is given, the exact number is not on record here.

Test systems include HCT-15 colon; IGROV1 ovarian; MOLT-4 leukemia; OVCAR-3 ovarian; RPMI-8226 leukemia; SF-539 CNS; SK-MEL-2 melanoma; UACC-257 melanoma; MCF7 breast.
Experiment in all cases: NCI anticancer screen, dose series, 48 h

In the case of `CC(C)C(=O)N[C@@H](C)C(=O)N(Cc1ccc2ccccc2c1)N=O`, the TGI in the experiment on HCT-15 colon, in the experiment with IGROV1 ovarian, with MOLT-4 leukemia, in the experiment on OVCAR-3 ovarian, with RPMI-8226 leukemia and in the experiment with SF-539 CNS was greater than 100 µM each time. The TGI in the experiment on SK-MEL-2 melanoma and with UACC-257 melanoma was greater than 100 µM throughout.

Take `CCN(CC)CCOc1ccc(/C=C2\CC3C4CCC5=CC(=O)CC[C@]5(C)C4CC[C@]3(C)C2=O)cc1OC` (some centres not stated): the GI50 in the experiment with HCT-15 colon is 2.82 µM; in the experiment with IGROV1 ovarian it was 22.7 µM; in the experiment with MCF7 breast it was 3.02 µM; in the experiment with MOLT-4 leukemia, 5.78 µM; in the experiment with OVCAR-3 ovarian, 2.37 µM; with RPMI-8226 leukemia, 1.79 µM. In addition, the GI50 with SF-539 CNS is 2.06 µM; with SK-MEL-2 melanoma, 9.01 µM; in the experiment with UACC-257 melanoma it was 3.43 µM. The TGI with HCT-15 colon was 10.5 µM; in the experiment with IGROV1 ovarian, greater than 100 µM; in the experiment on MCF7 breast it was 13.7 µM; with MOLT-4 leukemia, greater than 100 µM; in the experiment with OVCAR-3 ovarian, 5.07 µM; in the experiment on RPMI-8226 leukemia it was 5.03 µM. The values for the TGI in the experiment with SF-539 CNS, with SK-MEL-2 melanoma and in the experiment with UACC-257 melanoma were 6.13 µM, greater than 100 µM and 11.1 µM, respectively.

On to `Nc1ccc(Nc2nc(F)nc(-c3c4ccccc4c4n3CCS4)n2)cc1`, for which the TGI in the experiment on HCT-15 colon was determined as 25.5 µM; with IGROV1 ovarian, 29.9 µM; with MOLT-4 leukemia, 50.9 µM; with OVCAR-3 ovarian, 34.7 µM; in the experiment with SF-539 CNS it was 27.6 µM; in the experiment on SK-MEL-2 melanoma, 29.3 µM.

Regarding `CC(=O)N1CC2Nc3ccccc3C2CC1CO` (configuration not stated), the TGI in the experiment with HCT-15 colon, in the experiment on IGROV1 ovarian, in the experiment on MOLT-4 leukemia, in the experiment with OVCAR-3 ovarian, in the experiment with RPMI-8226 leukemia and with SF-539 CNS was greater than 100 µM throughout. Besides, the TGI in the experiment on SK-MEL-2 melanoma and in the experiment with UACC-257 melanoma was greater than 100 µM each time.

Take `COc1ccc(C(c2ccc(C(C)C)cc(=O)c2O)c2c(O)cc3oc(-c4ccccc4)cc(=O)c3c2O)cc1` (configuration not stated): the TGI in the experiment on HCT-15 colon worked out at 43.6 µM; in the experiment on IGROV1 ovarian, 24.4 µM; with MOLT-4 leukemia it was 48.4 µM; with OVCAR-3 ovarian it was 19 µM; in the experiment on RPMI-8226 leukemia, 37.3 µM; in the experiment on SF-539 CNS, 21.5 µM. The compound also yielded a TGI with UACC-257 melanoma of 72.4 µM.

On to `C(=C\c1csnn1)/c1cccnc1`, for which the TGI in the experiment with HCT-15 colon, in the experiment with MOLT-4 leukemia, in the experiment with OVCAR-3 ovarian, in the experiment on RPMI-8226 leukemia, in the experiment on SF-539 CNS and in the experiment with SK-MEL-2 melanoma was greater than 100 µM throughout. In the experiment with UACC-257 melanoma, this compound came in with a TGI greater than 100 µM.

With `CN1CCN(c2ccc3c4c(cccc24)C(=O)N(CCN2CCN(CCCN4CCN(CCN5C(=O)c6cccc7c(N8CCN(C)CC8)ccc(c67)C5=O)CC4)CC2)C3=O)CC1`, the GI50 in the experiment with HCT-15 colon was 4.08 µM; in the experiment on MCF7 breast it was 5.06 µM; in the experiment on OVCAR-3 ovarian, 8.2 µM; in the experiment with RPMI-8226 leukemia, 0.861 µM; in the experiment with SF-539 CNS, 7.67 µM; in the experiment with UACC-257 melanoma, 10.2 µM. The TGI was 11.3 µM with HCT-15 colon; 18.5 µM in the experiment with MCF7 breast; 15.8 µM in the experiment with OVCAR-3 ovarian; 1.89 µM in the experiment on RPMI-8226 leukemia; 16.9 µM with SF-539 CNS; 18.4 µM in the experiment with UACC-257 melanoma.

For `COc1cnc2c(c1)C(=O)c1c-2n(CCCn2ccnc2)c(=O)c2cc(Cl)ccc12`, the GI50 in the experiment on HCT-15 colon was 0.159 µM; in the experiment on MCF7 breast, less than 0.01 µM; with OVCAR-3 ovarian, 0.129 µM; with RPMI-8226 leukemia, 0.0504 µM; in the experiment with SF-539 CNS it was 0.0388 µM; in the experiment on SK-MEL-2 melanoma it was 0.574 µM. In addition, the GI50 in the experiment on UACC-257 melanoma was 0.0904 µM. Moreover, the TGI was greater than 100 µM with HCT-15 colon; 38.8 µM with OVCAR-3 ovarian; 0.987 µM with RPMI-8226 leukemia; 0.321 µM in the experiment with SF-539 CNS; 14.3 µM in the experiment with SK-MEL-2 melanoma; 1.91 µM with UACC-257 melanoma.

On to `O=c1cc(Cl)nc[nH]1`, for which the TGI with HCT-15 colon, with IGROV1 ovarian, in the experiment with MOLT-4 leukemia, with OVCAR-3 ovarian, in the experiment with RPMI-8226 leukemia and in the experiment with SK-MEL-2 melanoma was greater than 100 µM throughout. Moreover, the TGI in the experiment on UACC-257 melanoma is greater than 100 µM.

Regarding `CCC[CH2][Sn]([CH2]CCC)([O]C(=O)c1cccc(F)c1)[O]C(=O)c1cccc(F)c1`, the GI50 in the experiment with HCT-15 colon is 1.16 µM; in the experiment with IGROV1 ovarian, 1.43 µM; with MOLT-4 leukemia, 0.363 µM; with OVCAR-3 ovarian, 0.956 µM; in the experiment with RPMI-8226 leukemia, 0.329 µM; in the experiment on SF-539 CNS, 1.1 µM. For the same compound, the GI50 in the experiment with SK-MEL-2 melanoma was 0.851 µM; with UACC-257 melanoma it was 1.17 µM. Besides, the TGI worked out at 3.45 µM with HCT-15 colon; 2.93 µM with IGROV1 ovarian; 2.41 µM with MOLT-4 leukemia; 2.17 µM in the experiment on OVCAR-3 ovarian; 2.02 µM in the experiment on RPMI-8226 leukemia; 2.31 µM with SF-539 CNS. Further, the values for the TGI with SK-MEL-2 melanoma and in the experiment on UACC-257 melanoma were 2.1 µM and 2.6 µM, respectively.

As for `O=C(Nc1c(-c2nc3ccccc3[nH]2)sc(=S)n1-c1ccccc1)c1ccccc1`, the TGI in the experiment on HCT-15 colon, with IGROV1 ovarian, in the experiment with MOLT-4 leukemia, with OVCAR-3 ovarian, with RPMI-8226 leukemia and in the experiment on SF-539 CNS was greater than 100 µM in each case. Further, the TGI with SK-MEL-2 melanoma and in the experiment on UACC-257 melanoma was greater than 100 µM each time.

As for `O=c1ccccc2cccc(O)c12`, the TGI in the experiment with HCT-15 colon, in the experiment on IGROV1 ovarian, with MOLT-4 leukemia, in the experiment with OVCAR-3 ovarian, with RPMI-8226 leukemia and with SF-539 CNS was greater than 100 µM in each case. In the experiment on UACC-257 melanoma, this compound had a TGI greater than 100 µM.

In the case of `Cc1cc(NS(=O)(=O)c2ccc(NC(=O)c3cccc4c(N)c5ccccc5nc34)cc2)no1`, the TGI was greater than 100 µM with HCT-15 colon; 59.3 µM in the experiment with IGROV1 ovarian; greater than 100 µM with MOLT-4 leukemia; 52.8 µM with OVCAR-3 ovarian; 62.6 µM in the experiment on RPMI-8226 leukemia; 47.6 µM with SF-539 CNS. The TGI in the experiment with SK-MEL-2 melanoma turned out to be 37.2 µM.

As to `COc1ccc2c3c1C(=O)CCC3CO2` (configuration not stated), the TGI in the experiment on HCT-15 colon, in the experiment on IGROV1 ovarian, with MOLT-4 leukemia, in the experiment with OVCAR-3 ovarian, with RPMI-8226 leukemia and in the experiment with SF-539 CNS was greater than 100 µM each time. Moreover, the TGI with SK-MEL-2 melanoma and in the experiment on UACC-257 melanoma was greater than 100 µM in each case.
